{"source": "patent US7626031B2", "about": "“Substituted 3-(diarylmethylene)indolin-2-ones and methods of their use” (Symphony Evolution, Inc., priority 2002, dated 2009)", "key": {"[1]": {"target": "EGFR (Homo sapiens, UniProt P00533)", "sequence (P00533 25-1210, species assumed)": "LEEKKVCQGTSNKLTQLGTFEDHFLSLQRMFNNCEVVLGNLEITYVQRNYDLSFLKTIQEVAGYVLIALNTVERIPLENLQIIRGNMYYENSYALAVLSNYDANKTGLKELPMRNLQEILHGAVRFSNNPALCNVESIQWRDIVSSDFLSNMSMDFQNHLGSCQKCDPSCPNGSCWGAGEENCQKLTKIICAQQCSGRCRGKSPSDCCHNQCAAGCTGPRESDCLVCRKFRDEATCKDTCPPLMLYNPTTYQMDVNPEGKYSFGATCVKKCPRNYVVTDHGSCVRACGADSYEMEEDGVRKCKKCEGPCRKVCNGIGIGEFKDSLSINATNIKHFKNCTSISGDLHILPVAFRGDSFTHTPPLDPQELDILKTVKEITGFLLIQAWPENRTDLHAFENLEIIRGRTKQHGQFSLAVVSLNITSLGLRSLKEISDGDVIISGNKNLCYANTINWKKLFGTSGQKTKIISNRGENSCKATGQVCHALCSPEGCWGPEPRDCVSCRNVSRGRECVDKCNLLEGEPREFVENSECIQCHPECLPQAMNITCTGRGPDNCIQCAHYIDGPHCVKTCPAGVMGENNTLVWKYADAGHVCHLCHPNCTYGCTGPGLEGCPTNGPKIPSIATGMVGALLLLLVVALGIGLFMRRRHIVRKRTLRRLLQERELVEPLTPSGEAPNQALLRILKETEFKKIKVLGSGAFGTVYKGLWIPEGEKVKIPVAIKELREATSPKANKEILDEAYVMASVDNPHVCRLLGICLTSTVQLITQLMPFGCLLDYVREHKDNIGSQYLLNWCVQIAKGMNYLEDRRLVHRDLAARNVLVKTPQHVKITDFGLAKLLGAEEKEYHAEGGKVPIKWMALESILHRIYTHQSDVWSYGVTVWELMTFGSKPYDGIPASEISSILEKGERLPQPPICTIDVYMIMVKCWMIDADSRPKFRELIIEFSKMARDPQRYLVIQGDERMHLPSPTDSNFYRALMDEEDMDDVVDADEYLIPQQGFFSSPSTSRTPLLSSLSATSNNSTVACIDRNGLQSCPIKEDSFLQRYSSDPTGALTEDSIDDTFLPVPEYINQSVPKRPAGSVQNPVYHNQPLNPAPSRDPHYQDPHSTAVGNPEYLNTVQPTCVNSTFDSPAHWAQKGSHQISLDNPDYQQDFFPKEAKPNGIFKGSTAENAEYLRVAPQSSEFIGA", "test": "Kinase assay, EGFR (33P-ATP incorporation or luciferase-coupled ATP consumption)", "type": "biochemical", "summary_of_the_method": "(§1)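 Kinase activity measured either by γ-33P ATP incorporation into immobilized substrate (MBP or pEY) with scintillation counting, or by luciferase-based ATP consumption with pEY. Enzyme 10 or 20 nM; ATP near each kinase's KM (e.g. 10 or 30 μM); 1 h at room temperature, 1% DMSO, 10-point dose-response.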"}, "[2]": {"target": "Fyn (Homo sapiens, UniProt P06241)", "sequence (P06241 whole entry, species assumed)": "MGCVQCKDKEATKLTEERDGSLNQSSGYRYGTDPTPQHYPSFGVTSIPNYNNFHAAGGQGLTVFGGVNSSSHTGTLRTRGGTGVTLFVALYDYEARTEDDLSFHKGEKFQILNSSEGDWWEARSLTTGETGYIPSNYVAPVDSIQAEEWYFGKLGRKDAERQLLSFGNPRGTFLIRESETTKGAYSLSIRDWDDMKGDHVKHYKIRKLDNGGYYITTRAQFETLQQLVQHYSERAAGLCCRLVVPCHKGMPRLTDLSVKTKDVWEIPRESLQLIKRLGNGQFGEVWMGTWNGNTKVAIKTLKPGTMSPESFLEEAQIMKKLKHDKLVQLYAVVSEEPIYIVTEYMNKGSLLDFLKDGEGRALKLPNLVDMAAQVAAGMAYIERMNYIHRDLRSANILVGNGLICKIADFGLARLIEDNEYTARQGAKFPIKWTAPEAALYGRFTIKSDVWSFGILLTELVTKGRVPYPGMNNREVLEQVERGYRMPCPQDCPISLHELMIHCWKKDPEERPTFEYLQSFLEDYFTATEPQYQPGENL", "test": "Kinase assay, Fyn", "type": "biochemical", "experimental": "(§2) Kinase activity and compound inhibition are investigated using one or more assay formats. The ATP concentrations for each assay are selected to be close to the Michaelis-Menten constant (KM) for each individual kinase. Dose-response experiments are performed at 10 different inhibitor concentrations in a 384-well plate format. […] Exemplary kinase assays are described below. KDR Assay"}, "[3]": {"target": "EphA2 (Homo sapiens, UniProt P29317)", "test": "Kinase assay, EphA2 (33P-ATP incorporation or luciferase-coupled ATP consumption)", "type": "biochemical", "summary_of_the_method": "as §1"}, "[4]": {"target": "FGFR1 (Homo sapiens, UniProt P11362)", "sequence (P11362 22-822, species assumed)": "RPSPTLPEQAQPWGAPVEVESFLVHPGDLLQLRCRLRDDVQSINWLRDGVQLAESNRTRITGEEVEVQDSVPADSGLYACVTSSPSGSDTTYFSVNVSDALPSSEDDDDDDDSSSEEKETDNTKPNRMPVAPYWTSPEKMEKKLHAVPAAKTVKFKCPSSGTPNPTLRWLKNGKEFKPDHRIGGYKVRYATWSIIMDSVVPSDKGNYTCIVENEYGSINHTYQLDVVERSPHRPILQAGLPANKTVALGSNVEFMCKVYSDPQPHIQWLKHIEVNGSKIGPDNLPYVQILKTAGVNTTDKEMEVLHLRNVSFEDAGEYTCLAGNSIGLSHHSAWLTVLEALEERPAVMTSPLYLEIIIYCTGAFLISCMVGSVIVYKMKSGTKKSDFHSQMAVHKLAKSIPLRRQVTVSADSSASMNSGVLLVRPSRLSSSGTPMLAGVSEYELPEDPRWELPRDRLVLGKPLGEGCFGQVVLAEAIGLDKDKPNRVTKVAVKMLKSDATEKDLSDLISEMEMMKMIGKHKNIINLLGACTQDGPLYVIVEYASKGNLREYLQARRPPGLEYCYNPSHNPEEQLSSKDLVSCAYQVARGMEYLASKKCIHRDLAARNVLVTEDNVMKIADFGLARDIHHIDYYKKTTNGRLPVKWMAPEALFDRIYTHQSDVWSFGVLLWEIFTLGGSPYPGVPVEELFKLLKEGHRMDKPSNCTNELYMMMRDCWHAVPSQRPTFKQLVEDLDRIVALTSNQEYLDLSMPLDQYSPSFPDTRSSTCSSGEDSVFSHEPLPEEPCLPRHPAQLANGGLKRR", "test": "Kinase assay, FGFR1 (33P-ATP incorporation or luciferase-coupled ATP consumption)", "type": "biochemical", "summary_of_the_method": "as §1"}, "[5]": {"target": "T1, KDR (baculovirus expressed human KDR kinase domain D807-V1356) (Homo sapiens, UniProt P35968)", "T1 construct": "human KDR kinase domain D807-V1356; host or cells: baculovirus expression system", "T1 sequence (P35968 807-1356)": "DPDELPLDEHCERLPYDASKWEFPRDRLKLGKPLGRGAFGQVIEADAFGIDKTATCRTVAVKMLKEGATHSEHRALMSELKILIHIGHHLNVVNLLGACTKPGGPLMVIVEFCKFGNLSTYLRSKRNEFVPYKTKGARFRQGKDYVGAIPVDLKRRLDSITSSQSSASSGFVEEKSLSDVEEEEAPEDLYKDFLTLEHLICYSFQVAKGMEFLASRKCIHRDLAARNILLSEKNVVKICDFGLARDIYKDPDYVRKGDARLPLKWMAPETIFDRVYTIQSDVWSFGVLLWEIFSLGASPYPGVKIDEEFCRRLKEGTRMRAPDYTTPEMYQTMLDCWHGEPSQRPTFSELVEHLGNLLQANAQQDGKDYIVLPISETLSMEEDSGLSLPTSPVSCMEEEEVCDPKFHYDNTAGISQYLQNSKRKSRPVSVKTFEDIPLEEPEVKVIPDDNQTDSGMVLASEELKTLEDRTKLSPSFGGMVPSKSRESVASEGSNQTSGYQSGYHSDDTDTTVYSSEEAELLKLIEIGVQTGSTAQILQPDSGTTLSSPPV", "test": "biochemical", "summary_of_the_method": "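Luciferase-coupled chemiluminescence quantifies ATP left after a 4 h room-temperature reaction of KDR kinase domain (D807–V1356, baculovirus-expressed human). ATP set close to KM; inhibitors tested at 10 concentrations.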"}, "[6]": {"target": "PDGFR alpha (Homo sapiens, UniProt P16234)", "sequence (P16234 24-1089)": "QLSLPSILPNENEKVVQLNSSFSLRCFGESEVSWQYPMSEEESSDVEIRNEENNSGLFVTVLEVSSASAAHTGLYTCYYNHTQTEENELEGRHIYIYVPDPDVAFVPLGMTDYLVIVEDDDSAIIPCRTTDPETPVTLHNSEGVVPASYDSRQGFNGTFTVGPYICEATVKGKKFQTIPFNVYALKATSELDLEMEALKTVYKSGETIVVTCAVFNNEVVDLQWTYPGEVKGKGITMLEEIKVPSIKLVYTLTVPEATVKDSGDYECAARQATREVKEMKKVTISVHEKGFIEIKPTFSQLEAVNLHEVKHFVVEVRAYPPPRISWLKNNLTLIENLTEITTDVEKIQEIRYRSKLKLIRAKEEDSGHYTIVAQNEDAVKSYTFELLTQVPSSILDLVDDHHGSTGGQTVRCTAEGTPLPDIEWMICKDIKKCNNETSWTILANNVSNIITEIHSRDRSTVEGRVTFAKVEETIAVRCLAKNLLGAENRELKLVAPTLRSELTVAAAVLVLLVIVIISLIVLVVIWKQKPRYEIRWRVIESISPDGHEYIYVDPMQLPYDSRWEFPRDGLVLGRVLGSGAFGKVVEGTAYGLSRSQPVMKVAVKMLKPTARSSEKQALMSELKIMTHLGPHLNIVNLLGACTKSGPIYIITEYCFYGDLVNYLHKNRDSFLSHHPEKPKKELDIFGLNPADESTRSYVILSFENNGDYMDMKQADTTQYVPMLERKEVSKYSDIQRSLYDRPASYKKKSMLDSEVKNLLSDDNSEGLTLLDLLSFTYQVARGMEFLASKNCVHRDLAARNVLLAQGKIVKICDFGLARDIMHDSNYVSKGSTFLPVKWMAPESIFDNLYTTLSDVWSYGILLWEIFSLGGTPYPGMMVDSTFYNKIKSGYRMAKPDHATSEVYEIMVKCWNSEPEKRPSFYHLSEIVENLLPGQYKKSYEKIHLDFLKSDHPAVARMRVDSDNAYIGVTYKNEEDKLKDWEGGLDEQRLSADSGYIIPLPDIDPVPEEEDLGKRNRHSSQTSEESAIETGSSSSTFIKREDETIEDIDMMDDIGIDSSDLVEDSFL", "test": "Kinase assay, PDGFR alpha (33P-ATP incorporation or luciferase-coupled ATP consumption)", "type": "biochemical", "conditions": "read-out: PDGF-R-A IC50", "summary_of_the_method": "as §1"}, "[7]": {"target": "c-Kit kinase (Homo sapiens, UniProt P10721)", "sequence (P10721 26-976)": "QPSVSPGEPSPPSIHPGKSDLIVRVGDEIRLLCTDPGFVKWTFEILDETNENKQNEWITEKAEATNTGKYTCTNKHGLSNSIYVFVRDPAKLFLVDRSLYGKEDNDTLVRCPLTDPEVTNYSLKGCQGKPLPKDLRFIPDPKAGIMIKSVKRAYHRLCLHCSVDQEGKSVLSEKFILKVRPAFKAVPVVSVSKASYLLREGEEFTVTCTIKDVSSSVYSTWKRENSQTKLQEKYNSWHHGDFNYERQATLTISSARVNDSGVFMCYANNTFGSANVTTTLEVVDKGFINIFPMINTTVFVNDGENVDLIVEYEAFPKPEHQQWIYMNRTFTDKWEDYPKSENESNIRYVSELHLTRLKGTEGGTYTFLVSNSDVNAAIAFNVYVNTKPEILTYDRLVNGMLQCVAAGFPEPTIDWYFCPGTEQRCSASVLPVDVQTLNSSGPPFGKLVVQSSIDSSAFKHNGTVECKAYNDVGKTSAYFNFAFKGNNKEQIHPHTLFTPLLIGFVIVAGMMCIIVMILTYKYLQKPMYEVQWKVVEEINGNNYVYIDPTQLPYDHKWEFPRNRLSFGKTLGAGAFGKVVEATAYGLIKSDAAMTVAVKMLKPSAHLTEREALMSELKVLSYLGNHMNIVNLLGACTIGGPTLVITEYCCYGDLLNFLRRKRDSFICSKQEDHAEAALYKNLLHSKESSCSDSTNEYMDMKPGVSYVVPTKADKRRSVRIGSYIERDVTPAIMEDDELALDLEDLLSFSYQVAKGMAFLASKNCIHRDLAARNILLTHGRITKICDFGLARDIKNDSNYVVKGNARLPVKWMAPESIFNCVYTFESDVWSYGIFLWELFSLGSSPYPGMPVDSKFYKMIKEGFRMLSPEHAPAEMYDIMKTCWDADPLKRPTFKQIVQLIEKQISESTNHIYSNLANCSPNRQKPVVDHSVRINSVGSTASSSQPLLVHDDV", "test": "c-Kit AlphaScreen kinase assay", "type": "biochemical", "experimental": "as §2\nc-Kit biochemical activity was assessed using AlphaScreen™ (Perkin Elmer) technology, described above. Test compounds, ATP, biotinylated poly(Glu, Tyr) and c-Kit kinase were combined in a volume of 20 μL in a 384-well white, medium binding microtiter plate (Greiner). Reaction mixtures were incubated for 1 hr at ambient temperature. Reactions were quenched by addition of 10 uL of […] AlphaScreen bead suspension containing 75 mM Hepes, pH 7.4, 300 mM NaCl, 120 mM EDTA, 0.3% BSA and 0.03% Tween-20. After 16 hr incubation at ambient temperature plates were read using an AlphaQuest reader (Perkin Elmer)."}, "[8]": {"target": "IRK (Homo sapiens, UniProt P06213)", "test": "Kinase assay, IRK", "type": "biochemical", "experimental": "as §2"}, "[9]": {"target": "ALK (Homo sapiens, UniProt Q9UM73)", "test": "Kinase assay, ALK (33P-ATP incorporation or luciferase-coupled ATP consumption)", "type": "biochemical", "experimental": "Kinase assays were performed by measurement of incorporation of γ-^33P ATP into immobilized myelin basic protein (MBP). […] Plates were washed 3× with 100 μl TBS. […] Compound dilutions were performed in DMSO and added to assay wells to a final DMSO concentration of 1%. Each data point was measured in duplicate, and at least two duplicate assays were performed for each individual compound determination. Enzyme was added to final concentrations of 10 nM or 20 nM, for example. A mixture of unlabeled ATP and γ-^33P ATP was added to start the reaction (2×10^6 cpm of γ-^33P ATP per well (3000 Ci/mmole) and either 10 μM or 30 μM unlabeled ATP, typically. The reactions were carried out for 1 hour at room temperature with shaking. Plates were washed 7× with TBS, followed by the addition of 50 μl/well scintillation fluid (Wallac). Plates were read using a Wallac Trilux counter. This is only one format of such assays, various other formats are possible, as known to one of ordinary skill in the art.\nTyrosine kinase activity is determined by 1) measurement of kinase-dependent ATP consumption by in the presence of a generic substrate such as, polyglutamic acid, tyrosine, 4:1 (pEY), by luciferase/luciferin-mediated chemiluminescence or; 2) incorporation of radioactive phosphate derived from ^33P-ATP into a generic substrate which has been adsorbed onto the well surface of polystyrene microtiter plates. Phosphorylated substrate products are quantified by scintillation spectrometry.\nas §2"}}}
{"smiles": "CCN1CCC(Nc2ccc3c(c2)/C(=C(\\c2ccc(F)cc2)c2nc(C)c[nH]2)C(=O)N3)CC1", "note": "[Entry 106, (3Z)-5-[(1-ethylpiperidin-4-yl)amino]-3-[(4-fluorophenyl)(4-methyl-1H-imidazol-2-yl)methylidene]-1,3-dihydro-2H-indol-2-one]", "values": [{"measurement": "IC50", "setting": "[1]", "result": "50 to 500", "unit": "nM"}, {"measurement": "IC50", "setting": "[2]", "result": "< 50", "unit": "nM"}, {"measurement": "IC50", "setting": "[3]", "result": "500 to 5000", "unit": "nM"}, {"measurement": "IC50", "setting": "[4]", "result": "50 to 500", "unit": "nM"}, {"measurement": "IC50", "setting": "[5]", "result": "< 50", "unit": "nM"}, {"measurement": "IC50", "setting": "[6]", "result": "< 50", "unit": "nM"}, {"measurement": "IC50", "setting": "[7]", "result": "50 to 500", "unit": "nM"}, {"measurement": "IC50", "setting": "[8]", "result": "500 to 5000", "unit": "nM"}]}
{"smiles": "CCN1CCC(Nc2ccc3c(c2)/C(=C(/c2ncc[nH]2)c2ccccc2F)C(=O)N3)CC1", "note": "[Entry 107, (3Z)-5-[(1-ethylpiperidin-4-yl)amino]-3-[(2-fluorophenyl)(1H-imidazol-2-yl)methylidene]-1,3-dihydro-2H-indol-2-one]", "values": [{"measurement": "IC50", "setting": "[1]", "result": "50 to 500", "unit": "nM"}, {"measurement": "IC50", "setting": "[2]", "result": "< 50", "unit": "nM"}, {"measurement": "IC50", "setting": "[3]", "result": "500 to 5000", "unit": "nM"}, {"measurement": "IC50", "setting": "[4]", "result": "< 50", "unit": "nM"}, {"measurement": "IC50", "setting": "[5]", "result": "< 50", "unit": "nM"}, {"measurement": "IC50", "setting": "[6]", "result": "< 50", "unit": "nM"}, {"measurement": "IC50", "setting": "[7]", "result": "< 50", "unit": "nM"}, {"measurement": "IC50", "setting": "[8]", "result": "500 to 5000", "unit": "nM"}]}
{"smiles": "CCN1CCC(Nc2ccc3c(c2)/C(=C(/c2nc(C)c[nH]2)c2ccc(C(F)(F)F)cc2F)C(=O)N3)CC1", "note": "[Entry 108, (3Z)-5-[(1-ethylpiperidin-4-yl)amino]-3-[[2-fluoro-4-(trifluoromethyl)phenyl] (4-methyl-1H-imidazol-2-yl)methylidene]-1,3-dihydro-2H-indol-2-one]", "values": [{"measurement": "IC50", "setting": "[1]", "result": "50 to 500", "unit": "nM"}, {"measurement": "IC50", "setting": "[2]", "result": "< 50", "unit": "nM"}, {"measurement": "IC50", "setting": "[3]", "result": "500 to 5000", "unit": "nM"}, {"measurement": "IC50", "setting": "[4]", "result": "< 50", "unit": "nM"}, {"measurement": "IC50", "setting": "[5]", "result": "< 50", "unit": "nM"}, {"measurement": "IC50", "setting": "[6]", "result": "< 50", "unit": "nM"}, {"measurement": "IC50", "setting": "[7]", "result": "< 50", "unit": "nM"}, {"measurement": "IC50", "setting": "[8]", "result": "500 to 5000", "unit": "nM"}]}
{"smiles": "CCN1CCC(Nc2ccc3c(c2)/C(=C(/c2ncc[nH]2)c2cccc(F)c2F)C(=O)N3)CC1", "note": "[Entry 109, (3Z)-3-[(2,3-difluorophenyl)(1H-imidazol-2-yl)methylidene]-5-[(1-ethylpiperidin-4-yl)amino]-1,3-dihydro-2H-indol-2-one]", "values": [{"measurement": "IC50", "setting": "[1]", "result": "50 to 500", "unit": "nM"}, {"measurement": "IC50", "setting": "[2]", "result": "< 50", "unit": "nM"}, {"measurement": "IC50", "setting": "[3]", "result": "500 to 5000", "unit": "nM"}, {"measurement": "IC50", "setting": "[4]", "result": "< 50", "unit": "nM"}, {"measurement": "IC50", "setting": "[5]", "result": "< 50", "unit": "nM"}, {"measurement": "IC50", "setting": "[6]", "result": "< 50", "unit": "nM"}, {"measurement": "IC50", "setting": "[7]", "result": "< 50", "unit": "nM"}, {"measurement": "IC50", "setting": "[8]", "result": "500 to 5000", "unit": "nM"}]}
{"smiles": "CCN1CCC(Nc2ccc3c(c2)/C(=C(/c2ncc[nH]2)c2ccc(F)cc2F)C(=O)N3)CC1", "note": "[Entry 112, (3Z)-3-[(2,4-difluorophenyl)(1H-imidazol-2-yl)methylidene]-5-[(1-ethylpiperidin-4-yl)amino]-1,3-dihydro-2H-indol-2-one]", "values": [{"measurement": "IC50", "setting": "[1]", "result": "50 to 500", "unit": "nM"}, {"measurement": "IC50", "setting": "[2]", "result": "< 50", "unit": "nM"}, {"measurement": "IC50", "setting": "[3]", "result": "500 to 5000", "unit": "nM"}, {"measurement": "IC50", "setting": "[4]", "result": "< 50", "unit": "nM"}, {"measurement": "IC50", "setting": "[5]", "result": "< 50", "unit": "nM"}, {"measurement": "IC50", "setting": "[6]", "result": "< 50", "unit": "nM"}, {"measurement": "IC50", "setting": "[7]", "result": "< 50", "unit": "nM"}, {"measurement": "IC50", "setting": "[8]", "result": "500 to 5000", "unit": "nM"}]}
{"smiles": "CCN1CCC(Nc2ccc3c(c2)/C(=C(\\c2cccc(C(F)(F)F)c2)c2ncc[nH]2)C(=O)N3)CC1", "note": "[Entry 114, (3Z)-3-[(3-trifluoromethylphenyl)(1H-imidazol-2-yl)methylidene]-5-[(1-ethylpiperidin-4-yl)amino]-1,3-dihydro-2H-indol-2-one]", "values": [{"measurement": "IC50", "setting": "[1]", "result": "500 to 5000", "unit": "nM"}, {"measurement": "IC50", "setting": "[2]", "result": "50 to 500", "unit": "nM"}, {"measurement": "IC50", "setting": "[3]", "result": "500 to 5000", "unit": "nM"}, {"measurement": "IC50", "setting": "[4]", "result": "50 to 500", "unit": "nM"}, {"measurement": "IC50", "setting": "[5]", "result": "< 50", "unit": "nM"}, {"measurement": "IC50", "setting": "[6]", "result": "< 50", "unit": "nM"}, {"measurement": "IC50", "setting": "[7]", "result": "50 to 500", "unit": "nM"}, {"measurement": "IC50", "setting": "[8]", "result": "> 5000", "unit": "nM"}]}
{"smiles": "CCN1CCC(Nc2ccc3c(c2)/C(=C(\\c2cccc(C(F)(F)F)c2)c2nc(C)c[nH]2)C(=O)N3)CC1", "note": "[Entry 115, (3Z)-3-[(3-trifluoromethylphenyl)(4-methyl-1H-imidazol-2-yl)methylidene]-5-[(1-ethylpiperidin-4-yl)amino]-1,3-dihydro-2H-indol-2-one]", "values": [{"measurement": "IC50", "setting": "[1]", "result": "500 to 5000", "unit": "nM"}, {"measurement": "IC50", "setting": "[2]", "result": "50 to 500", "unit": "nM"}, {"measurement": "IC50", "setting": "[3]", "result": "500 to 5000", "unit": "nM"}, {"measurement": "IC50", "setting": "[4]", "result": "50 to 500", "unit": "nM"}, {"measurement": "IC50", "setting": "[5]", "result": "< 50", "unit": "nM"}, {"measurement": "IC50", "setting": "[6]", "result": "< 50", "unit": "nM"}, {"measurement": "IC50", "setting": "[7]", "result": "< 50", "unit": "nM"}, {"measurement": "IC50", "setting": "[8]", "result": "500 to 5000", "unit": "nM"}]}
{"smiles": "CCN1CCC(Nc2ccc3c(c2)/C(=C(/c2nc(C)c[nH]2)c2ccc(Cl)cc2F)C(=O)N3)CC1", "note": "[Entry 118, (3Z)-3-[(4-chloro-2-fluorophenyl)(4-methyl-1H-imidazol-2-yl)methylidene]-5-[(1-ethylpiperidin-4-yl)amino]-1,3-dihydro-2H-indol-2-one]", "values": [{"measurement": "IC50", "setting": "[1]", "result": "< 50", "unit": "nM"}, {"measurement": "IC50", "setting": "[2]", "result": "< 50", "unit": "nM"}, {"measurement": "IC50", "setting": "[3]", "result": "500 to 5000", "unit": "nM"}, {"measurement": "IC50", "setting": "[4]", "result": "< 50", "unit": "nM"}, {"measurement": "IC50", "setting": "[5]", "result": "< 50", "unit": "nM"}, {"measurement": "IC50", "setting": "[9]", "result": "< 50", "unit": "nM"}, {"measurement": "IC50", "setting": "[7]", "result": "< 50", "unit": "nM"}, {"measurement": "IC50", "setting": "[8]", "result": "50 to 500", "unit": "nM"}]}
